Laboratory results published in publication PMC7802075 (ACS Infectious Diseases, 2020).
Entries after “also recorded” stand apart in the source; their conditions may differ. Where a name gives a salt, the structure may show the parent alone. Read-outs that look alike come from different tables or passages of the source.

Assays:
[1] = system: clemastine fumarate-resistant L. major promastigotes (cl.C and cl.D); assay type: cell-based, Leishmania major
[2] = system: Leishmania species (L. major, L. amazonensis, L. donovani, L. infantum); assay: Dose response positive control, each Leishmania species; assay type: cell-based, Leishmania spp.; conditions: for each species
Description: […]. Resazurin solution (10 μL) was then added and the plate, incubated at 26 °C for 4 h prior to measurement using a fluorescence plate reader (Ex555/Em585). EC50 values were calculated using sigmoidal regression analysis (GraphPad Prism).
[…]. After 24 h of infection, serial dilutions of the test compounds in medium were added and the slides were incubated at 37 °C and 5% CO2 for 5 days (L. major) or 2 days (L. amazonensis). Amphotericin B and miltefosine were used as controls. At the end, cells were fixed with methanol and stained with Giemsa solution, and the intracelular amastigotes were counted using a light microscope. Results were expressed as the percentage reduction of intracellular amastigotes (compared with untreated control wells). EC50 values were calculated using sigmoidal regression analysis (GraphPad Prism).

[3] = target: T1, LmjIPCS (inositol phosphorylceramide synthase from L. major) (Leishmania major, UniProt E9AFX2); assay: biochemical; assay type: biochemical; parameters: inhibition: dose or concentration left out as unconfirmed; conditions: for inhibition: read-out: inhibition LmjIPCS
T1 sequence (E9AFX2 1-338): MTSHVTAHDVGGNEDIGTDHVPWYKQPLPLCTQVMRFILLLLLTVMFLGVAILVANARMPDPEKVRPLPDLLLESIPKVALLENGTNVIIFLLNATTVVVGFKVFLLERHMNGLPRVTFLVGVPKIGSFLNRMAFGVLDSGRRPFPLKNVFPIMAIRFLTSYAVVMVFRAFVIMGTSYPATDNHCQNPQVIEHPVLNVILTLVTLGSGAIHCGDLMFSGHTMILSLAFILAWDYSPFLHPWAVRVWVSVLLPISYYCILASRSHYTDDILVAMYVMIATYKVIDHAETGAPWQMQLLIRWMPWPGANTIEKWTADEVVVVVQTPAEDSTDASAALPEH

[4] = in vivo; cited from earlier work
[5] = in vivo; cited from earlier work; remark: listed apart in the source
[6] = system: BMDM uninfected macrophages, nitrite formation; assay: Nitric oxide assay (Griess) in uninfected macrophages; assay type: cell-based, mouse; conditions: serial dilutions, 48 h
Description: The release of nitric oxide was measured in the culture supernatant by the Griess method, as described previously.[81] The absorbance was measured at 570 nm, and the nitrite concentration was determined using a standard curve of sodium nitrite (0 to 50 μM). The positive control was macrophages incubated with 1 μg mL^–1 LPS (Sigma-Aldrich, Brazil) and 10% conditioned medium of lymphocytes as a source of IFN. Negative controls were cells treated with DMSO and untreated cells.

[7] = system: wild type Leishmania major promastigotes; assay type: cell-based
[8] = system: L. amazonensis intracellular amastigotes in BMDM from C57BL/6 WT or P2X7R KO mice
[9] = in vivo; cited from earlier work; remark: listed apart in the source
[10] = system: L. major ΔLmjLCB2 mutant promastigotes; assay: microbe, parasite or virus in culture; assay type: cell-based; conditions: Leishmania major; sphingolipid-free mutant, 48 h; read-out: EC50 ΔLmjLCB2 parasites
[11] = system: L. major add-back (AB) line promastigotes [pXNEO LmLCB2]; assay: microbe, parasite or virus in culture; assay type: cell-based; conditions: Leishmania major, 48 h
[12] = system: L. major (FV1) promastigotes; assay: Antipromastigote resazurin assay, L. major (FV1) wild type; assay type: cell-based, Leishmania major; conditions: for EC50: Leishmania major
[13] = NINDS set screen against L. major promastigotes, single concentration printed as 10mM

C[C@@H]1[C@H](O)[C@@H](C)/C=C/C=C/C=C/C=C/C=C/C=C/C=C/[C@H](O[C@@H]2O[C@H](C)[C@@H](O)[C@H](N)[C@@H]2O)C[C@@H]2O[C@](O)(C[C@@H](O)C[C@@H](O)[C@H](O)CC[C@@H](O)C[C@@H](O)CC(=O)O[C@H]1C)C[C@H](O)[C@H]2C(=O)O [amphotericin B]
cross-resistance in clemastine fumarate-resistant L. major clones [1]: no evidence for cross-resistance | EC50 [2]: 0.027 ± 0.003 µM | 20mM inhibition LmjIPCS [3]: 41%

CN1CCC[C@@H]1CCO[C@](C)(c1ccccc1)c1ccc(Cl)cc1 [clemastine fumarate 1, clemastine fumarate]
oral LD50 (mouse) [4]: 730 mg.kg^–1 | volume of distribution [5]: 9.5 ± 3.8 L kg^–1 | nitrite formation (NO levels) [6]: no significant effect | nitrite formation (NO levels) ([6]; listed as clemastine): statistically non-significant | cell density [7]: no change in cell density | effect of addition of extracellular ATP, P2X7R KO macrophages [8]: did not show any effect | oral LD50 (rat) [9]: 3550 mg.kg^–1

C[C@@H]1C[C@@H]([C@H](O)CC2CC(=O)NC(=O)C2)C(=O)[C@@H](C)C1 [cycloheximide, reference compound]
EC50 [10]: 0.02 µM | EC50 [11]: 0.02 µM | inhibition at 20000 µM ([3]; read-out: 20mM inhibition LmjIPCS): 9% | EC50 ([12]; FV1 WT, 48 h, compared with mutant lines, read-out: EC50 wild type L. major promastigotes): 0.02 µM

CCCCCCCCCCCCCCCCOP(=O)([O-])OCC[N+](C)(C)C [miltefosine, reference compound]
cross-resistance in clemastine fumarate-resistant L. major clones [1]: no evidence for cross-resistance | inhibition [3]: 3.35%

NC[C@@H]1O[C@H](O[C@H]2[C@@H](O)[C@H](O[C@@H]3[C@@H](O)[C@H](N)C[C@H](N)[C@H]3O[C@H]3O[C@H](CO)[C@@H](O)[C@H](O)[C@H]3N)O[C@@H]2CO)[C@H](N)[C@@H](O)[C@@H]1O [paromomycin, reference compound]
cross-resistance in clemastine fumarate-resistant L. major clones [1]: no evidence for cross-resistance | inhibition [3]: -17%

N=C(N)c1ccc(OCCCCCOc2ccc(C(=N)N)cc2)cc1 [pentamidine 9, pentamidine, reference compound]
cross-resistance in clemastine fumarate-resistant L. major clones [1]: no evidence for cross-resistance; also recorded: statistically significant hypersensitivity | 10mM inhibition L. major [12]: 59% | ED50 vs L. major [12]: 2050 µM

CN1CCN(CCCN2c3ccccc3Sc3ccc(C(F)(F)F)cc32)CC1 [trifluoperazine 16, trifluoperazine, reference compound]
20mM inhibition LmjIPCS [3]: 86% | IC50 [3]: 5.03 µM | LmjIPCS inhibition ([3]; secondary dose response): confirmed | ED50 vs L. major ([12]; L. major promastigotes, dose response): 7170 µM | EC50 ([12]; secondary dose response, L. major (FV1), read-out: EC50 against L. major promastigotes): > 1 µM | 10mM inhibition L. major [12, 13]: 67%

GINKGOLIC ACID
20mM inhibition LmjIPCS [3]: 73% | 10mM inhibition L. major [12, 13]: <5%

TANNIC ACID
20mM inhibition LmjIPCS [3]: 91% | 10mM inhibition L. major [12, 13]: <5%
